Measured values from PubChem BioAssay AID256 (DTP/NCI, 2004).
Where “and” joins values, the source holds several entries; their conditions need not be identical. Equal values may be shown once. Inconclusive results and toxic doses are left out. The calls were made as follows: active = survival T/C of 150% or more; inactive = T/C below 125% in these data.

System: CD2F1 mice, L1210 leukemia ip, survival T/C
Assay: NCI In Vivo Anticancer Drug Screen. Data for tumor model L1210 Leukemia (intraperitoneal) in CD2F1 (CDF1) mice
Details: higher = longer survival
Outline: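 Implant tumor; dose compound or vehicle; measure endpoint in both groups; report treated divided by control.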

[1] = endpoint: mean survival time, dose: 100.0 mg/kg/injection, schedule: Q01DX001 (ip), vehicle: Klucel (hydroxypropylcellulose) (HPC)
[2] = endpoint: mean survival time, dose: 200.0 mg/kg/injection, schedule: Q01DX001 (ip), vehicle: Klucel (hydroxypropylcellulose) (HPC)
[3] = endpoint: mean survival time, dose: 400.0 mg/kg/injection, schedule: Q01DX001 (ip), vehicle: Klucel (hydroxypropylcellulose) (HPC)
[4] = endpoint: mean survival time, dose: 100.0 mg/kg/injection, schedule: Q04DX003 (ip), vehicle: saline with Tween-80
[5] = endpoint: mean survival time, dose: 100.0 mg/kg/injection, schedule: Q01DX009 (ip), vehicle: saline with Tween-80
[6] = endpoint: mean survival time, dose: 200.0 mg/kg/injection, schedule: Q01DX009 (ip), vehicle: saline with Tween-80
[7] = endpoint: mean survival time, dose: 400.0 mg/kg/injection, schedule: Q01DX009 (ip), vehicle: saline with Tween-80
[8] = endpoint: mean survival time, dose: 100.0 mg/kg/injection, schedule: Q04DX002 (ip), vehicle: saline with Tween-80
[9] = endpoint: mean survival time, dose: 200.0 mg/kg/injection, schedule: Q04DX002 (ip), vehicle: saline with Tween-80
[10] = endpoint: mean survival time, dose: 200.0 mg/kg/injection, schedule: Q04DX003 (ip), vehicle: saline with Tween-80
[11] = endpoint: mean survival time, dose: 400.0 mg/kg/injection, schedule: Q04DX003 (ip), vehicle: saline with Tween-80

Measured: T/C

S=C1Nc2ccccc2CS1
inactive: [1] 105 % of control | [2] 102 % of control | [3] 103 % of control

CCOC(=O)N(C)N=NC
inactive: endpoint: median survival time, dose: 3.75 mg/kg/injection, schedule: Q01DX005 (ip), vehicle: saline 110 % of control | endpoint: median survival time, dose: 7.5 mg/kg/injection, schedule: Q01DX005 (ip), vehicle: saline 119 % of control | endpoint: median survival time, dose: 10.8 mg/kg/injection, schedule: Q01DX005 (ip), vehicle: saline 124 % of control | endpoint: median survival time, dose: 50.0 mg/kg/injection, schedule: Q01DX005 (ip), vehicle: saline 86 % of control

CN(C)N=Nc1cccc([N+](=O)[O-])c1
inactive: endpoint: mean survival time, dose: 79.0 mg/kg/injection, schedule: Q01DX009 (ip), vehicle: Klucel (hydroxypropylcellulose) (HPC) 107 % of control | endpoint: mean survival time, dose: 118.0 mg/kg/injection, schedule: Q01DX009 (ip), vehicle: Klucel (hydroxypropylcellulose) (HPC) 102 % of control

c1ccc(C2CO2)cc1 (stereo unspecified)
inactive: endpoint: mean survival time, dose: 150.0 mg/kg/injection, schedule: Q04DX003 (ip), vehicle: Klucel (hydroxypropylcellulose) (HPC) 102 % of control | endpoint: mean survival time, dose: 225.0 mg/kg/injection, schedule: Q04DX003 (ip), vehicle: Klucel (hydroxypropylcellulose) (HPC) 102 % of control

CCCCCCCCCCCC(CCCCCCC)c1ccc(C)cc1 (stereo unspecified)
inactive: endpoint: mean survival time, dose: 100.0 mg/kg/injection, schedule: Q01DX001 (ip), vehicle: saline 91 % of control | endpoint: mean survival time, dose: 200.0 mg/kg/injection, schedule: Q01DX001 (ip), vehicle: saline 94 % of control | endpoint: mean survival time, dose: 400.0 mg/kg/injection, schedule: Q01DX001 (ip), vehicle: saline 97 % of control

C[n+]1c(-c2cc(C(F)(F)F)cc(C(F)(F)F)c2)c2cc(N)ccc2c2ccc(N)cc21
inactive: endpoint: mean survival time, dose: 6.25 mg/kg/injection, schedule: Q01DX005 (ip), vehicle: saline with Tween-80 106 % of control | endpoint: mean survival time, dose: 12.5 mg/kg/injection, schedule: Q01DX005 (ip), vehicle: saline with Tween-80 101 % of control | endpoint: mean survival time, dose: 25.0 mg/kg/injection, schedule: Q01DX005 (ip), vehicle: saline with Tween-80 106 % of control | endpoint: mean survival time, dose: 50.0 mg/kg/injection, schedule: Q01DX005 (ip), vehicle: saline with Tween-80 111 % of control | endpoint: mean survival time, dose: 100.0 mg/kg/injection, schedule: Q01DX005 (ip), vehicle: saline with Tween-80 116 % of control

NC(=O)N/N=C\c1ccco1
inactive: [4] 102 % of control

O=C(O)C1C2C=CC(C2)C1C(=O)Nc1ccccc1 (stereo unspecified)
inactive: [5] 97 % of control | [6] 97 % of control | [7] 96 % of control

O=[As](O)(O)c1ccccc1[As](=O)(O)O
inactive: endpoint: mean survival time, dose: 6.25 mg/kg/injection, schedule: Q04DX003 (ip), vehicle: saline with Tween-80 101 % of control | endpoint: mean survival time, dose: 12.5 mg/kg/injection, schedule: Q04DX003 (ip), vehicle: saline with Tween-80 101 % of control | endpoint: mean survival time, dose: 25.0 mg/kg/injection, schedule: Q04DX003 (ip), vehicle: saline with Tween-80 100 % of control

CN(C)C(=O)C(Cc1c[nH]c2ccccc12)NC(=O)c1ccccc1 (stereo unspecified)
inactive: [8] 95 % of control | [9] 103 % of control | endpoint: mean survival time, dose: 400.0 mg/kg/injection, schedule: Q04DX002 (ip), vehicle: saline with Tween-80 98 % of control

Cc1ccc(NC(=O)Nc2ccccc2C(N)=O)cc1
inactive: endpoint: mean survival time, dose: 100.0 mg/kg/injection, schedule: Q01DX009 (ip), vehicle: saline sonified 97 % of control | endpoint: mean survival time, dose: 200.0 mg/kg/injection, schedule: Q01DX009 (ip), vehicle: saline sonified 98 % of control | endpoint: mean survival time, dose: 400.0 mg/kg/injection, schedule: Q01DX009 (ip), vehicle: saline sonified 100 % of control

COC(=O)c1ccccc1-c1c(C)cccc1[N+](=O)[O-]
inactive: [1] 98 % of control | [2] 87 % of control | [3] 89 % of control

Nc1cc(=O)[nH]c(=S)[nH]1
inactive: [8] 97 % of control | [9] 105 % of control

COc1ccc(CC2C(=O)NC(C)C(=O)N(C)C3Cc4ccc(cc4)Oc4cc(ccc4O)CC(C(=O)NC(C)C(=O)NC(C)C(=O)N2C)N(C)C3=O)cc1 (stereo unspecified)
inactive: endpoint: mean survival time, dose: 1.0 mg/kg/injection, schedule: Q01DX009 (ip), vehicle: saline with Tween-80 112 % of control | endpoint: mean survival time, dose: 2.0 mg/kg/injection, schedule: Q01DX009 (ip), vehicle: saline with Tween-80 112 % of control | endpoint: mean survival time, dose: 4.0 mg/kg/injection, schedule: Q01DX009 (ip), vehicle: saline with Tween-80 116 % of control | endpoint: mean survival time, dose: 16.0 mg/kg/injection, schedule: Q01DX009 (ip), vehicle: saline with Tween-80 122 % of control | endpoint: median survival time, dose: 2.0 mg/kg/injection, schedule: Q01DX009 (ip), vehicle: saline with Tween-80 122 % of control | endpoint: median survival time, dose: 4.0 mg/kg/injection, schedule: Q01DX009 (ip), vehicle: saline with Tween-80 124 % of control | endpoint: median survival time, dose: 16.0 mg/kg/injection, schedule: Q01DX009 (ip), vehicle: saline with Tween-80 111 % of control

CCCCCCC(=O)CCCCCCCCCCCCC(=O)OC
inactive: [4] 95 % of control | [10] 97 % of control | [11] 93 % of control

C1CCC(C2CCCC[N-]2)[N-]C1.CCC(C)C([NH-])C(=O)O.[Cl][Pt] (stereo unspecified)
inactive: endpoint: median survival time, dose: 10.0 mg/kg/injection, schedule: Q04DX003 (ip), vehicle: saline 101 % of control | endpoint: median survival time, dose: 20.0 mg/kg/injection, schedule: Q04DX003 (ip), vehicle: saline 98 % of control | endpoint: median survival time, dose: 40.0 mg/kg/injection, schedule: Q04DX003 (ip), vehicle: saline 101 % of control | endpoint: median survival time, dose: 80.0 mg/kg/injection, schedule: Q04DX003 (ip), vehicle: saline 98 % of control

O=C(Nc1cccc(C2=NCCN2)c1)c1ccc(C(=O)Nc2cccc(C3=NCCN3)c2)c(Cl)c1
inactive: endpoint: mean survival time, dose: 1.0 mg/kg/injection, schedule: Q01DX009 (ip), vehicle: saline 95 % of control | endpoint: mean survival time, dose: 2.0 mg/kg/injection, schedule: Q01DX009 (ip), vehicle: saline 92 % of control | endpoint: mean survival time, dose: 4.0 mg/kg/injection, schedule: Q01DX009 (ip), vehicle: saline 98 % of control | endpoint: mean survival time, dose: 8.0 mg/kg/injection, schedule: Q01DX009 (ip), vehicle: saline 113 % of control

CSc1nc(N)cc(N)n1
inactive: [5] 98 % of control | [4] 98 % of control | [6] 95 % of control | [10] 97 % of control | [7] 100 % of control | [11] 102 % of control

O=C1OC(c2ccccc2)(c2ccccc2)c2ccc3ccccc3c21
inactive: [4] 96 % of control | [10] 93 % of control | [11] 90 % of control

c1ccc(C[S][Sn]([c]2ccccc2)([c]2ccccc2)[c]2ccccc2)cc1
inactive: endpoint: mean survival time, dose: 25.0 mg/kg/injection, schedule: Q04DX002 (ip), vehicle: saline with Tween-80 91 % of control | endpoint: mean survival time, dose: 50.0 mg/kg/injection, schedule: Q04DX002 (ip), vehicle: saline with Tween-80 102 % of control | [8] 94 % of control

c1cncc(CCc2cccnc2)c1
inactive: endpoint: mean survival time, dose: 100.0 mg/kg/injection, schedule: Q04DX003 (ip), vehicle: saline 100 % of control | endpoint: mean survival time, dose: 200.0 mg/kg/injection, schedule: Q04DX003 (ip), vehicle: saline 100 % of control

Cc1cc(N=CN(C)C)c2ccccc2n1
inactive: endpoint: mean survival time, dose: 3.12 mg/kg/injection, schedule: Q01DX009 (ip), vehicle: other 106 % of control | endpoint: mean survival time, dose: 6.25 mg/kg/injection, schedule: Q01DX009 (ip), vehicle: other 100 % of control | endpoint: mean survival time, dose: 12.5 mg/kg/injection, schedule: Q01DX009 (ip), vehicle: other 100 % of control | endpoint: mean survival time, dose: 25.0 mg/kg/injection, schedule: Q01DX009 (ip), vehicle: other 106 % of control and 107 % of control

CCC12CCC(=O)C=C1CCCC2=O (stereo unspecified)
inactive: endpoint: mean survival time, dose: 100.0 mg/kg/injection, schedule: Q04DX003 (ip), vehicle: saline sonified 95 % of control

O=C(c1ccccc1CO)N1CCOCC1
inactive: endpoint: mean survival time, dose: 12.5 mg/kg/injection, schedule: Q04DX002 (ip), vehicle: saline 98 % of control | endpoint: mean survival time, dose: 25.0 mg/kg/injection, schedule: Q04DX002 (ip), vehicle: saline 94 % of control | endpoint: mean survival time, dose: 50.0 mg/kg/injection, schedule: Q04DX002 (ip), vehicle: saline 94 % of control

CC(C)(C)OC(=O)NC(CO)C(=O)O (stereo unspecified)
inactive: [4] 92 % of control | [10] 86 % of control | [11] 94 % of control

Cc1ccc(S(=O)(=O)Nc2ccc([N+](=O)[O-])cc2OS(=O)(=O)c2ccc(C)cc2)cc1
inactive: endpoint: mean survival time, dose: 100.0 mg/kg/injection, schedule: Q04DX003 (ip), vehicle: alcohol 100 % of control | endpoint: mean survival time, dose: 200.0 mg/kg/injection, schedule: Q04DX003 (ip), vehicle: alcohol 95 % of control | endpoint: mean survival time, dose: 400.0 mg/kg/injection, schedule: Q04DX003 (ip), vehicle: alcohol 92 % of control

O=C(C1=CN(CCCO)CCC1)c1cc2ccccc2[nH]1
inactive: endpoint: mean survival time, dose: 100.0 mg/kg/injection, schedule: Q01DX001 (ip), vehicle: saline with Tween-80 94 % of control | endpoint: mean survival time, dose: 200.0 mg/kg/injection, schedule: Q01DX001 (ip), vehicle: saline with Tween-80 94 % of control | endpoint: mean survival time, dose: 400.0 mg/kg/injection, schedule: Q01DX001 (ip), vehicle: saline with Tween-80 97 % of control
